One series deals with Hepatome AH 130. As to the kind of experiment: Hepatome AH 130 tumour growth inhibition in rats. In kind it is in vivo, Sprague-Dawley rats. The arrangement: ED50: unit not given here. The conditions noted are these: one i.p. injection, dose causing 50 percent reduction of tumour size, killed 8th day. The method in brief:
(§1)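 Sprague-Dawley rats implanted i.p. with 5 × 10^6 tumour cells, given a single i.p. injection the day after implantation, and killed on day 8. Tumour weights compared with controls; ED50 is the dose halving tumour size, LD50 the dose lethal to 50% of animals.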

A short description of series [1]: Hepatome AH 130 tumour growth inhibition in rats. In kind it is in vivo, Sprague-Dawley rats. Details: ED50: unit not given here. The conditions noted are these: rat, in vivo, ip, one i.p. injection. A digest of the protocol: as §1
Series [2] has as its system Walker carcinosarcoma 256. The series can be described thus: Walker carcinosarcoma 256 tumour growth inhibition in rats. In kind it is in vivo, Sprague-Dawley rats. The arrangement: ED50: unit: mg/kg. The conditions noted are these: daily p.o. for 5 days, dose causing 50 percent reduction of tumour size, killed 9th day. A digest of the protocol: (§2)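 Sprague-Dawley rats implanted with Walker 256 tumour pieces 2-4 mm across. Compound dosed p.o. daily for 5 days from the day after implantation, and animals killed on day 9. Tumour weights compared with controls. ED50 is the dose giving 50% tumour-size reduction, and LD50 is the dose giving 50% lethality.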

Experiment in series [3]: as above
The arrangement: ED50: unit: mg/kg. The conditions noted are these: rat, in vivo, po, daily p.o. for 5 days. In kind it is in vivo, Sprague-Dawley rats. A digest of the protocol: as §2

Series [4] has as its system Ehrlich ascites tumour, ELD hyperdiploid. As to the kind of experiment: Ehrlich ascites tumour, ELD hyperdiploid (46 chromosomes), growth inhibition in mice. The class given is in vivo, SPF NMRI mice. The conditions noted are these: 100 mg/kg, one i.p. injection. The method in brief: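 SPF NMRI mice implanted i.p. with 2 × 10^6 ELD hyperdiploid Ehrlich ascites cells, given one i.p. injection the day after implantation. Animals killed on day 8; tumour weights compared with controls.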

Consider one molecule from US4177269A, “Novel 17-esters of 17α-hydroxy gestogens, compositions containing such compounds, processes for their preparation and methods of treatment therewith” (Aktiebolaget Leo, priority 1976, dated 1979).

In the case of `CC(=O)[C@@]1(OC(=O)COC(=O)c2ccc(C)c(N(CCCl)CCCl)c2)CC[C@H]2[C@@H]3CCC4=CC(=O)CC[C@]4(C)[C@H]3CC[C@@]21C` [Compound 3:7, 17α-/3-(N,N-bis(2-chloroethyl)amino)-4-methylbenzoyloxyacetoxy/pregn-4-ene-3,20-dione], the values for the ED50 (in the series with Hepatome AH 130; in series [2]) were 2 and 16, respectively. Moreover, the LD50 (commonly the dose at which mortality reaches 50%) in series [1] (dose causing 50 percent lethality, column head not given) is more than 250 mg/kg; in series [3] (dose causing 50 percent lethality), more than 250 mg/kg. The selectivity ratio was more than 125 in series [1] (read-out: T.I. (LD50/ED50)) and more than 15 in series [3] (read-out: T.I. (LD50/ED50)). Further, the Mortality in series [4] is reported as 0/12. For the same molecule, in series [4] (8th day), the “Tumour weight Treated/Control” value was found to be 2%.
